Laboratory results as given in patent publication US11076595B2, “1-(n,n-disubstituted carbamoyl) 4-(substituted sulfonyl)triazolin-5-one derivative, 4-(n,n-disubstituted carbamoyl) 1-(substituted sulfonyl)triazolin-5-one derivative, and herbicide containing said derivative as active ingredient” (HOKKO CHEMICAL INDUSTRY CO., LTD., priority 2017, dated 2021).

How the values were obtained:
Format in all cases: in vivo
Lindernia pyxidaria [1] = assay: Test Example 12: herbicidal effect test by treatment during growing period in paddy field; conditions: 120 g/10a; treatment seven days after sowing in flooded paddy pot; assessed 14 days after treatment
Method in brief: (§1)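 Read-out: weed suppression (%) = (1 − treated/untreated mean dry weight) × 100, scored 14 days after treatment with two replications. Pots held puddled paddy soil, 30 seeds per species sown 0–1 cm, flooded ~3 cm. Post-emergence dropwise water application at 7 days after sowing, 120 g a.i./10 are.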

Scirpus juncoides [2] = assay: as above; conditions: 120 g/10a; treatment seven days after sowing in flooded paddy pot; assessed 14 days after treatment
Method in brief: as §1

Echinochloa crus-galli [3] = assay: as above; conditions: 120 g/10a; treatment seven days after sowing in flooded paddy pot; assessed 14 days after treatment
Method in brief: as §1

Monochoria vaginalis [4] = assay: as above; conditions: 120 g/10a; treatment seven days after sowing in flooded paddy pot; assessed 14 days after treatment
Method in brief: as §1

Lindernia pyxidaria [5] = assay: Test Example 11: herbicidal effect test by soil treatment in paddy field; conditions: 120 g/10a active ingredient, 14 days after treatment
Method in brief: (§2)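 Seeds were sown 0-1 cm deep in puddled, fertilised paddy soil in Wagner pots and kept under about 3 cm of flooding in a greenhouse. Diluted emulsifiable concentrate was added dropwise right after sowing at 120 g a.i. per 10 are. Suppression (%) came from dry weight versus untreated pots after 14 days, two replicates.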

Scirpus juncoides [6] = assay: as above; conditions: 120 g/10a active ingredient, 14 days after treatment
Method in brief: as §2

Echinochloa crus-galli [7] = assay: as above; conditions: 120 g/10a active ingredient, 14 days after treatment
Method in brief: as §2

Monochoria vaginalis [8] = assay: as above; conditions: 120 g/10a active ingredient, 14 days after treatment
Method in brief: as §2

Echinochloa crus-galli [9] = assay: Test Example 14: herbicidal effect test by foliage treatment in upland field; conditions: 7 days after sowing, 120 g/10a, 14 days after treatment
Method in brief: (§3)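 Emulsifiable concentrate, water-diluted, is applied post-emergence to 7-day-old sowings in field soil at 120 g active ingredient per 10 are. The weed suppression rate derives from average dry weights versus untreated controls, measured 14 days later.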

Amaranthus viridis = assay: as above; conditions: 7 days after sowing, 120 g/10a, 14 days after treatment
Method in brief: as §3

Chenopodium album = assay: as above; conditions: 7 days after sowing, 120 g/10a, 14 days after treatment
Method in brief: as §3

crabgrass = assay: as above; conditions: 7 days after sowing, 120 g/10a, 14 days after treatment
Method in brief: as §3

Row | Compound | Weed suppression rate (%) Lindemia pyxidaria (Lindernia pyxidaria [1]) [%] | Weed suppression rate (%) Scirpus juncoides (Scirpus juncoides [2]) [%] | Weed suppression rate (%) Echinochloa crus-galli (Echinochloa crus-galli [3]) [%] | Weed suppression rate (%) Monochoria vaginalis (Monochoria vaginalis [4]) [%] | Weed suppression rate (%) Lindemia pyxidaria (Lindernia pyxidaria [5]) [%] | Weed suppression rate (%) Scirpus juncoides (Scirpus juncoides [6]) [%] | Weed suppression rate (%) Echinochloa crus-galli (Echinochloa crus-galli [7]) [%] | Weed suppression rate (%) Monochoria vaginalis (Monochoria vaginalis [8]) [%] | herbicidal effect, Echinochloa crus-galli (Echinochloa crus-galli [9]) [%] | herbicidal effect, Amaranthus viridis (Amaranthus viridis) [%] | herbicidal effect, Chenopodium album (Chenopodium album) [%] | herbicidal effect, Crabgrass (crabgrass) [%]
1 | CC(C)N(C(=O)n1cnn(S(=O)(=O)c2ccc(F)cc2)c1=O)c1ccccc1 [Compound 11-464] | 60 | 90 | 90 | 80 | 80 | 80 | 100 | 60 | 60 | 50 | 50 | 90
2 | CCS(=O)(=O)n1ncn(C(=O)N(c2ccc(F)c(F)c2F)C(C)C)c1=O [Compound 11-1152] | 100 | 100 | 100 | 100 | 100 | 100 | 100 | 100 | 100 | 90 | 80 | 100
3 | CC(C)N(C(=O)n1cnn(S(=O)(=O)C2CCCCC2)c1=O)c1cccc(F)c1 [Compound 11-285] | 80 | 90 | 90 | 80 | 80 | 90 | 90 | 80 | 80 | 90 | 80 | 90
4 | CC(C)N(C(=O)n1cnn(S(=O)(=O)C2CCCCC2)c1=O)c1c(F)c(F)cc(F)c1F [Compound 11-299] | 80 | 100 | 100 | 100 | 100 | 100 | 100 | 70 | 100 | 60 | 60 | 100
5 | Cc1cc(Cl)ccc1N(C(=O)n1cnn(S(=O)(=O)C2CC2)c1=O)C(C)C [Compound 11-213] | 80 | 90 | 90 | 80 | 90 | 90 | 100 | 60 | 80 | 90 | 80 | 90
6 | CN(C(=O)n1cnn(S(=O)(=O)C2CCCCC2)c1=O)c1ccc(F)cc1F [Compound 11-1129] | 70 | 100 | 100 | 80 | 100 | 100 | 100 | 100 | 70 | 70 | 60 | 90
7 | CC(C)N(C(=O)n1cnn(S(=O)(=O)c2ccccc2F)c1=O)c1ccc(F)c(F)c1F [Compound 11-405] | 100 | 100 | 100 | 100 | 100 | 100 | 100 | 100 | 90 | 70 | 60 | 90
8 | CC(C)N(C(=O)n1cnn(S(=O)(=O)C2CC2)c1=O)c1ccc(Br)cc1Cl [Compound 11-209] | 80 | 100 | 100 | 90 | 100 | 100 | 100 | 90 | 90 | 30 | 60 | 90
9 | CC(C)N(C(=O)n1cnn(S(=O)(=O)C2CCCCC2)c1=O)c1ccc(Cl)cc1Br [Compound 11-306] | 70 | 100 | 90 | 70 | 80 | 100 | 100 | 60 | 60 | 70 | 70 | 100
10 | CC(C)N(C(=O)n1cnn(S(=O)(=O)C2CC2)c1=O)c1ccc(C(F)(F)F)cc1F [Compound 11-217] | 80 | 80 | 100 | 90 | 100 | 80 | 100 | 100 | 100 | 60 | 70 | 100
11 | CC(C)N(C(=O)n1cnn(S(=O)(=O)C(C)C)c1=O)c1ccc(C(F)(F)F)cc1F [Compound 11-76] | 60 | 60 | 100 | 80 | 80 | 60 | 100 | 100 | 100 | 80 | 60 | 100
